Tested on: human C-Myc transcription in MV-4-11 cells
Assay: Transcription of human C-Myc in human leukemic MV-4-11 cells (QuantiGene 2.0)
Assay type: cell-based
Conditions: inhibition of C-Myc mRNA transcription, 4 hours treatment, read-out: IC50 MV-4-11 Cell
Method: b) Transcription of Human C-Myc in Human Leukemic MV-4-11 Cells:
The effect of compounds on transcription of human C-Myc gene is monitored in human B-myelomonocytic leukemia cell line MV-4-11 (from American Type Culture Collection (ATCC), Manassas, Va., USA) using QuantiGene 2.0 assay kit (Affymetrix, Santa Clara, Calif., USA).
Typically, 8,000 MV-4-11 cells are plated in sterile 96-well plates (Costar #3598 from Fisher Scientific Canada, Ottawa, Ontario, Canada) in Iscove's medium supplemented with 10% fetal bovine serum, glutamine (2 mM), and penicillin (100 I.U.) and streptomycin (100 μg/mL) (all from Wisent Inc., St. Bruno, Quebec, Canada). Compounds are dissolved in DMSO at 30 mM. A series of 1:3 dilutions are first made in DMSO, and further […] dilutions are made in serum-containing cell culture media. The final concentration of DMSO is 0.1% in cell culture media. After cells are treated with various concentrations of test compound for 4 hours, cells are lysed using Quantigene 2.0 sample processing kit (#QS0100). C-Myc mRNA is detected using a QuantiGene 2.0 assay kit (#QS0009) with gene-specific probe to human C-Myc (#SA-50182) following the manufacturer's recommendations. Luminescence signals are read on Flexstation II microplate reader (Molecular Devices, Sunnyvale, Calif., USA).

IC50: 0.017 µM
Structure (SMILES): COC1CC(c2nc3ccc(-c4cc(C)c(=O)n(C)c4)cc3n2CCOCC(F)(F)F)C1 (stereo not shown) [Compound 63, 5-[2-(3-methoxycyclobutyl)-1-(2-(2,2,2-trifluoroethoxy)ethyl)-1H-benzo[d]imidazol-6-yl]-1,3-dimethylpyridin-2(1H)-one]
